Experimental findings from ChEMBL document CHEMBL3421629, “Pyrazole phenylcyclohexylcarbamates as inhibitors of human fatty acid amide hydrolases (FAAH)” (Eur J Med Chem, 2015) are described below.

Assay [1] concerns the target T1, Fatty-acid amide hydrolase 1 (Homo sapiens, UniProt O00519).
T1 sequence (O00519 whole entry): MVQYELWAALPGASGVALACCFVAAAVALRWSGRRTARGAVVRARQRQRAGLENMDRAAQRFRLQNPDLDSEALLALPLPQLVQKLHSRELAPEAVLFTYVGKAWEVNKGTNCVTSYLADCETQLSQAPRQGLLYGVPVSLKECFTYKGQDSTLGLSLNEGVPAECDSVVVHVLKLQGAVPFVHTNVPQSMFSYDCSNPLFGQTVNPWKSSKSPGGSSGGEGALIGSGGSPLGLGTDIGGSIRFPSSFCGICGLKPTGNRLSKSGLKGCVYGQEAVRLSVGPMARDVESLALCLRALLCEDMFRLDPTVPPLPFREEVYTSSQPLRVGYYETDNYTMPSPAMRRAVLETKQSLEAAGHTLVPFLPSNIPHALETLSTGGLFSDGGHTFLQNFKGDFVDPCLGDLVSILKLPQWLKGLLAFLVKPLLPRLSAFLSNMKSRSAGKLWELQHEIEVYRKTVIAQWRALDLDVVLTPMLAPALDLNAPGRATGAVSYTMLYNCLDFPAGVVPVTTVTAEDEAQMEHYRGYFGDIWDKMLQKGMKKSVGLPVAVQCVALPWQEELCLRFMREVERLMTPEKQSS
Nature of the assay: Inhibition of human recombinant FAAH using AMC arachidonoyl amide as substrate after 30 mins by fluorescence assay.

The species entered for the next assay is Homo sapiens. Nature of the assay: Selectivity index, ratio of IC50 for human recombinant MAGL to IC50 for human recombinant FAAH.
A further assay addresses T2, Monoglyceride lipase (Homo sapiens, UniProt Q99685).
T2 sequence (Q99685 whole entry): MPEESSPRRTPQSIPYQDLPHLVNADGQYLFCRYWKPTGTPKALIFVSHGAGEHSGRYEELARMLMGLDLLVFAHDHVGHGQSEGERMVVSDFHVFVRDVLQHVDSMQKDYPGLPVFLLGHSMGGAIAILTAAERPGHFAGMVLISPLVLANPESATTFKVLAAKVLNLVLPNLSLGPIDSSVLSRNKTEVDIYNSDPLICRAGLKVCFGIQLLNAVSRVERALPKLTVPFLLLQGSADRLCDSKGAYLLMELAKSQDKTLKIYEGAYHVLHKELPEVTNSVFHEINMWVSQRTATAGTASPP
In words: Inhibition of human recombinant MAGL using 4-nitrophenylacetate as substrate after 30 mins.

In assay [2] the target is T1, Fatty-acid amide hydrolase 1. In words: Inhibition of human recombinant FAAH using AMC arachidonoyl amide as substrate preincubated with protein for 0 min followed by substrate addition by fluorescence assay.
The target is the same in assay [3]. In words: Inhibition of human recombinant FAAH using AMC arachidonoyl amide as substrate preincubated with protein for 60 mins followed by substrate addition by fluorescence assay.
Assay [4] shares this target. Nature of the assay: Inhibition of human recombinant FAAH using AMC arachidonoyl amide as substrate preincubated with protein for 30 mins followed by substrate addition by fluorescence assay.

What is called IC50 is the point on the concentration scale where inhibition reaches its midpoint. As for `CCOC(=O)c1cc(-c2ccc(OC(=O)NC3CCCCC3)cc2)nn1C`, the IC50 in assay [1] was 316 nM.

On to `CCOC(=O)c1cc(-c2ccc(OC(=O)NC3CCCCC3)cc2)nn1-c1ccc(OC)cc1`, for which, in assay [1], the IC50 was determined as 159 nM.

Regarding `CCOC(=O)c1cc(-c2ccc(OC(=O)NC3CCCCC3)cc2)nn1-c1ccccc1`, the IC50 in assay [1] worked out at 592 nM.

For the molecule `CCOC(=O)c1cc(-c2cccc(OC(=O)NC3CCCCC3)c2)nn1CC`, in assay [1], the IC50 worked out at 507 nM.

Consider `CCOC(=O)c1cc(-c2ccc(OC(=O)NC3CCCCC3)cc2)n(-c2ccccc2)n1`, for which the half-inhibitory concentration (IC50) in assay [1] is 268 nM.

`CCOC(=O)c1cc(-c2cccc(OC(=O)NC3CCCCC3)c2)n(Cc2ccccc2)n1`: the IC50 in assay [1] worked out at 70 nM.

Regarding `CCOC(=O)c1cc(-c2cccc(OC(=O)NC3CCCCC3)c2)n(CC)n1`, the half-maximal inhibitory concentration (IC50) in assay [1] was found to be 101 nM.

`CCOC(=O)c1cc(-c2cccc(OC(=O)NC3CCCCC3)c2)n(-c2ccc(OC)cc2)n1`: the 50% inhibitory concentration (IC50) in assay [1] was found to be 103 nM.

Consider `CCOC(=O)c1cc(-c2cccc(OC(=O)NC3CCCCC3)c2)n(-c2ccc(C(F)(F)F)cc2)n1`, for which, in assay [1], the half-maximal inhibitory concentration (IC50) amounted to 132 nM.

As to `CCOC(=O)c1cc(-c2cccc(OC(=O)NC3CCCCC3)c2)n(-c2ccc(C)cc2)n1`, the IC50 in assay [1] is 29 nM; on Monoglyceride lipase, 34000 nM. In the assay filed under Homo sapiens, the Ratio IC50 is 1190.

Regarding `CC(C)NC(=O)c1cc(-c2cccc(OC(=O)NC3CCCCC3)c2)n(-c2ccccc2)n1`, in assay [1], the IC50 came to 232 nM.

With `COc1nn(-c2ccc(NC(=O)OCc3ccccc3)c(C)c2)c(=O)o1`, the half-inhibitory concentration (IC50) in assay [1] worked out at 14 nM; in assay [2], 13 nM; in assay [3] it was 1.9 nM; in assay [4] it was 3.5 nM.

With `CCOC(=O)c1cc(-c2cccc(OC(=O)NC3CCCCC3)c2)nn1-c1ccccc1`, the IC50 in assay [1] came to 539 nM.

As to `CCOC(=O)c1cc(-c2ccc(OC(=O)NC3CCCCC3)cc2)nn1CC`, in assay [1], the 50% inhibitory concentration (IC50) turned out to be 603 nM.

With `Cn1nc(C(N)=O)cc1-c1ccc(OC(=O)NC2CCCCC2)cc1`, in assay [1], the 50% inhibitory concentration (IC50) came out at 209 nM.

On to `CCOC(=O)c1cc(-c2ccc(OC(=O)NC3CCCCC3)cc2)n(-c2ccc(Cl)cc2)n1`, for which, in assay [1], the half-inhibitory concentration (IC50) is 281 nM.

As for `NC(=O)c1cc(-c2cccc(OC(=O)NC3CCCCC3)c2)n(-c2ccccc2)n1`, the 50% inhibitory concentration (IC50) in assay [1] turned out to be 169 nM.

As for `CCOC(=O)c1cc(-c2cccc(OC(=O)NC3CCCCC3)c2)n(-c2ccc(Cl)cc2Cl)n1`, in assay [1], the half-maximal inhibitory concentration (IC50) turned out to be 123 nM.

On to `CCOC(=O)c1cc(-c2cccc(OC(=O)NC3CCCCC3)c2)n(-c2ccc(Cl)cc2)n1`, for which the IC50 in assay [1] was found to be 17 nM; on Monoglyceride lipase, 83000 nM; in assay [2], 15 nM; in assay [3] it was 18 nM; in assay [4], 17 nM. The Ratio IC50 in the assay listed under Homo sapiens worked out at 4900.

In the case of `O=C(NC1CCCCC1)Oc1cccc(-c2cc(CO)nn2-c2ccccc2)c1`, the IC50 in assay [1] was found to be 462 nM.

Take `CCN(CC)C(=O)c1cc(-c2cccc(OC(=O)NC3CCCCC3)c2)n(-c2ccccc2)n1`: the concentration for half-maximal inhibition (IC50) in assay [1] was 448 nM.

As for `NC(=O)c1cc(-c2ccc(OC(=O)NC3CCCCC3)cc2)n(-c2ccccc2)n1`, the concentration for half-maximal inhibition (IC50) in assay [1] is 71 nM.

Consider `NC(=O)c1cc(-c2ccc(OC(=O)NC3CCCCC3)cc2)n(-c2ccc(Cl)cc2)n1`, for which the IC50 in assay [1] was 172 nM.

Regarding `O=C(NC1CCCCC1)Oc1cccc(-c2cc(C(=O)O)nn2-c2ccccc2)c1`, in assay [1], the IC50 was 2270 nM.

For `CCOC(=O)c1cc(-c2ccc(OC(=O)NC3CCCCC3)cc2)nn1-c1ccc(Cl)cc1`, the IC50 in assay [1] is 586 nM.

`CCOC(=O)c1cc(-c2cccc(OC(=O)NC3CCCCC3)c2)nn1-c1ccc(OC)cc1`: in assay [1], the IC50 is 407 nM.

Consider `CCCOC(=O)c1cc(-c2cccc(OC(=O)NC3CCCCC3)c2)n(-c2ccccc2)n1`, for which the figures for the IC50 (in assay [1]; at Monoglyceride lipase) were 27 nM and 38000 nM, respectively. The Ratio IC50 in the assay listed under Homo sapiens worked out at 1380.

As for `CCCCCCNC(=O)Oc1cccc(-c2cc(C(=O)OCC)nn2-c2ccccc2)c1`, the half-inhibitory concentration (IC50) in assay [1] came to 88 nM.

As to `CCOC(=O)c1cc(-c2ccc(OC(=O)NC3CCCCC3)cc2)n(C)n1`, in assay [1], the half-maximal inhibitory concentration (IC50) stood at 81 nM.

On to `CCOC(=O)c1cc(-c2cccc(OC(=O)NC3CCCCC3)c2)nn1C`, for which, in assay [1], the concentration for half-maximal inhibition (IC50) was 227 nM.

With `COc1ccc(-n2nc(C(N)=O)cc2-c2cccc(OC(=O)NC3CCCCC3)c2)cc1`, in assay [1], the concentration for half-maximal inhibition (IC50) amounted to 743 nM.

As for `CCOC(=O)c1cc(-c2cccc(OC(=O)NC3CCCCC3)c2)n(-c2ccccc2)n1`, the 50% inhibitory concentration (IC50) in assay [1] was 11 nM; at Monoglyceride lipase, 21000 nM. In addition, in the assay filed under Homo sapiens, the Ratio IC50 stood at 1840.

With `CCOC(=O)c1cc(-c2ccc(OC(=O)NC3CCCCC3)cc2)n(CC)n1`, in assay [1], the IC50 was determined as 214 nM.

In the case of `CCOC(=O)c1cc(-c2cccc(OC(=O)NC3CCCCC3)c2)nn1-c1ccc(Cl)cc1`, the concentration for half-maximal inhibition (IC50) in assay [1] was 353 nM.

Consider `O=C(NC1CCCCC1)Oc1cccc(-c2cc(C(=O)NC3CCCCC3)nn2-c2ccccc2)c1`, for which, in assay [1], the 50% inhibitory concentration (IC50) worked out at 288 nM.

Consider `CCCCCCNC(=O)Oc1cccc(-c2cc(C(=O)OCCC)nn2-c2ccccc2)c1`, for which the half-inhibitory concentration (IC50) in assay [1] is 101 nM.

In the case of `CCOC(=O)c1cc(-c2cccc(OC(=O)NC3CCCCC3)c2)n(C)n1`, the IC50 in assay [1] turned out to be 303 nM.

`NC(=O)c1cc(-c2cccc(OC(=O)NC3CCCCC3)c2)n(-c2ccc(Cl)cc2)n1`: in assay [1], the 50% inhibitory concentration (IC50) was 174 nM.

As to `COC(=O)c1cc(-c2cccc(OC(=O)NC3CCCCC3)c2)n(-c2ccccc2)n1`, the IC50 in assay [1] was 18 nM; on Monoglyceride lipase it was 49000 nM. Moreover, in the assay filed under Homo sapiens, the Ratio IC50 was determined as 2750.

For `CCOC(=O)c1cc(-c2cccc(OC(=O)NC3CCCCC3)c2)n(-c2ccc([N+](=O)[O-])cc2)n1`, the IC50 in assay [1] is 78 nM.
